Data on nine compounds can be found in patent US6794169B2, “UDP-N-acetylglucosamine: galactose-β1,3-N-acetylgalactosamine-α-R / (GlcNAc to GalNAc) β1,6-N-acetylglucosaminyltransferase, C2GnT3” (Glycozym ApS, priority 1999, dated 2004).

One assay deals with T1, C2GnT1 (Homo sapiens, UniProt Q02742).
T1 sequence (Q02742 1-428): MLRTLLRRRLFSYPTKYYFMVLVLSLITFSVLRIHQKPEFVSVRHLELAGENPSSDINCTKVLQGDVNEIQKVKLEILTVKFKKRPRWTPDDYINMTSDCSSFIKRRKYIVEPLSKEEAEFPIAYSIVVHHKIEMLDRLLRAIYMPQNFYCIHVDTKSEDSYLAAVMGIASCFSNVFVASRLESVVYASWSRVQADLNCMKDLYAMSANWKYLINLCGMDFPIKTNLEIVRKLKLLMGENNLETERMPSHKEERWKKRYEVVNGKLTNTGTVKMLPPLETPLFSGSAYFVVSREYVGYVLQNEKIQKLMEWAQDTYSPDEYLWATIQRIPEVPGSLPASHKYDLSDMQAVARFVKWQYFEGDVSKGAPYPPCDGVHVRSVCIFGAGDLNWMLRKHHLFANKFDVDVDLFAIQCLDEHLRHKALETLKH
Description: GlcNAc-transferase activity of C2GnT1 with acceptor substrates. Format: biochemical. On the procedure:
(§1) Controls included the pAcGP67-GalNAc-T3-sol (24). The kinetic properties were determined with partially purified enzymes expressed in High Five™ cells. Partial purification was performed by consecutive chromatography on Amberlite IRA-95, DEAE-Sephacryl and SP-Sepharose essentially as described (25; 25).
(§2) Standard assays were performed using culture supernatant from infected cells in 50 μl reaction mixtures containing 100 mM MES (pH 6.5), 0.1% Nonidet P-40, 150 μM UDP-[^14C]-GlcNAc (2,000 cpm/nmol) (Amersham Pharmacia Biotech), and the indicated concentrations of acceptor substrates (Sigma and Toronto Research Laboratories Ltd., see Table I for structures). Reaction products were quantified by chromatography on Dowex AG1-X8.

The target in the next assay is T2, C2GnT3 (Homo sapiens, UniProt Q9P109).
T2 construct: An expression vector construct designed to encode amino acid residues 39-453 of C2GnT3; gp67 secretion signal of vector pAcGP67A (N); made in house; host or cells: Sf9 insect cells (baculovirus; culture supernatant); High Five cells for kinetic properties (partially purified)
T2 sequence (Q9P109 39-453): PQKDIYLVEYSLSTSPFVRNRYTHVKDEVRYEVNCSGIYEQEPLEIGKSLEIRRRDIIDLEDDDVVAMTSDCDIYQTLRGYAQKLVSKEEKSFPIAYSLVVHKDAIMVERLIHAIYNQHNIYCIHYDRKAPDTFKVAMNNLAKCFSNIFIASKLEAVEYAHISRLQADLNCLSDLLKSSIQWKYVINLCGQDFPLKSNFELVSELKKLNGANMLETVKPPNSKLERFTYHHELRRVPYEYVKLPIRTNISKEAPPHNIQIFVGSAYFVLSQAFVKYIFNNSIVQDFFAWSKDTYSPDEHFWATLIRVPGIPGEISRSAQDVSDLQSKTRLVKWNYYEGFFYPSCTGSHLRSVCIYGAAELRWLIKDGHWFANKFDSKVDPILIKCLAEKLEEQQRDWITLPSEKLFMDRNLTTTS
Description: GlcNAc-transferase activity of recombinant soluble C2GnT3 with acceptor/donor substrates. Format: biochemical. To be noted: for Substrate specificity, C2GnT3 activity: partially purified media of infected High Five cells, background subtracted; for C2GnT3 activity with acceptor substrate (in words): as acceptor substrate; for C2GnT3 activity with donor substrate (in words): as donor substrate, data not shown.
Text: with BamH1 and EcoRI restriction sites, respectively (FIG. 2). The PCR product was cloned between the BamHI and EcoRI sites of pAcGP67A (PharMingen), and the insert was fully sequenced. pAcGP67-C2GnT3-sol was co-transfected with Baculo-Gold™ DNA (PharMingen) as described previously (23). Recombinant Baculovirus was obtained after two successive amplifications in Sf9 cells grown in serum-containing medium, and titers of virus were estimated by titration in 24-well plates with monitoring of enzyme activities.
as §1, §2

On to `CC(=O)N[C@H]1[C@@H](Oc2ccc([N+](=O)[O-])cc2)O[C@H](CO)[C@H](O)[C@@H]1O[C@@H]1O[C@H](CO)[C@H](O)[C@H](O)[C@H]1O` [β-D-Gal-(1-3)-α-D-GalNAc-1-p-Nph], for which the “Substrate specificity, C2GnT1 activity” value was determined as 16.2 nmol/h/mg on C2GnT1 (acceptor substrate 2 mM) and 23.6 nmol/h/mg at C2GnT1 (acceptor substrate 10 mM). The “Substrate specificity, C2GnT3 activity” value worked out at 18.1 nmol/h/mg at C2GnT3 (acceptor substrate 2 mM) and 26.1 nmol/h/mg on C2GnT3 (acceptor substrate 10 mM). For the same compound, the “Substrate inhibition of C2GnT3 enzyme activity” value at C2GnT3 (high acceptor concentrations up to 20 mM) is reported as “No substrate inhibition”.
In the case of `CC(=O)N[C@@H]1[C@@H](O[C@@H]2O[C@H](CO)[C@H](O)[C@H](O)[C@H]2O)[C@@H](O)[C@@H](CO)O[C@@H]1O` [β-D-Gal-(1-3)-α-D-GalNAc], the “Substrate specificity, C2GnT1 activity” value is given as 9.6 nmol/h/mg at C2GnT1 (acceptor substrate 2 mM) and 19.0 nmol/h/mg on C2GnT1 (acceptor substrate 10 mM). In addition, the results for the “Substrate specificity, C2GnT3 activity” value at C2GnT3 (acceptor substrate 2 mM) and at C2GnT3 (acceptor substrate 10 mM) were 6.6 nmol/h/mg and 14.3 nmol/h/mg, respectively.
On the same counts, the results for `CC(=O)N[C@H]1C(O)O[C@H](CO)[C@H](O)[C@@H]1O` (stereo partly drawn) [D-GalNAc] are less than 0.1 nmol/h/mg, less than 0.1 nmol/h/mg, less than 0.1 nmol/h/mg and less than 0.1 nmol/h/mg.
Turning to `CC(=O)N[C@H]1[C@@H](Oc2ccc([N+](=O)[O-])cc2)O[C@H](CO)[C@H](O)[C@@H]1O` [α-D-GalNAc-1-p-Nph], the “Substrate specificity, C2GnT1 activity” value on C2GnT1 (acceptor substrate 2 mM) and at C2GnT1 (acceptor substrate 10 mM) was less than 0.1 nmol/h/mg throughout. For the same compound, the “Substrate specificity, C2GnT3 activity” value at C2GnT3 (acceptor substrate 2 mM) and on C2GnT3 (acceptor substrate 10 mM) was less than 0.1 nmol/h/mg in each case. Further, the “C2GnT3 activity with acceptor substrate (in words)” value on C2GnT3 is “no activity”.
Regarding `CO[C@@H]1O[C@H](CO)[C@H](O)[C@H](O[C@@H]2O[C@H](CO)[C@@H](O)[C@H](O)[C@H]2NC(C)=O)[C@H]1O` [β-D-GlcNAc-(1-3)-β-D-Gal-1-Me], the “Substrate specificity, C2GnT1 activity” value at C2GnT1 (acceptor substrate 2 mM) and at C2GnT1 (acceptor substrate 10 mM) was less than 0.1 nmol/h/mg in each case. Further, the “Substrate specificity, C2GnT3 activity” value at C2GnT3 (acceptor substrate 2 mM) and on C2GnT3 (acceptor substrate 10 mM) was less than 0.1 nmol/h/mg in each case. In addition, the “C2GnT3 activity with acceptor substrate (in words)” value on C2GnT3 was “no activity”.
Regarding `CC(=O)N[C@H]1[C@H](O[C@H]2[C@@H](O)[C@@H](CO)O[C@@H](O[C@H]3[C@H](O)[C@@H](O)C(O)O[C@@H]3CO)[C@@H]2O)O[C@H](CO)[C@@H](O[C@@H]2O[C@H](CO)[C@H](O)[C@H](O)[C@H]2O)[C@@H]1O` (mixture of isomers) [lacto-N-neo-tetraose], the “Substrate specificity, C2GnT1 activity” value at C2GnT1 (acceptor substrate 2 mM) and at C2GnT1 (acceptor substrate 10 mM) was less than 0.1 nmol/h/mg in each case. The “Substrate specificity, C2GnT3 activity” value on C2GnT3 (acceptor substrate 2 mM) and at C2GnT3 (acceptor substrate 10 mM) was less than 0.1 nmol/h/mg each time. Further, the “C2GnT3 activity with acceptor substrate (in words)” value at C2GnT3 is reported as “no activity”.
Turning to `CC(=O)N[C@H]1[C@@H](OP(=O)(O)OP(=O)(O)OC[C@H]2O[C@@H](n3ccc(=O)[nH]c3=O)[C@H](O)[C@@H]2O)O[C@H](CO)[C@@H](O)[C@@H]1O` [UDP-GlcNAc, UDP-N-acetylglucosamine], the “C2GnT3 activity with donor substrate (in words)” value at C2GnT3 was “strict donor substrate specificity”.
With `CC(=O)N[C@H]1[C@@H](OP(=O)(O)OP(=O)(O)OC[C@H]2O[C@@H](n3ccc(=O)[nH]c3=O)[C@H](O)[C@@H]2O)O[C@H](CO)[C@H](O)[C@@H]1O` [UDP-GalNAc], the “C2GnT3 activity with donor substrate (in words)” value on C2GnT3 is reported as “no activity”.
`CC(=O)NC1C(OC2C(O)C(CO)OC(Oc3ccc([N+](=O)[O-])cc3)C2NC(C)=O)OC(CO)C(O)C1O` [β-D-GlcNAc-(1-3)-α-D-GalNAc-1-p-Nph]: the “Substrate specificity, C2GnT1 activity” value at C2GnT1 (acceptor substrate 2 mM) and on C2GnT1 (acceptor substrate 10 mM) was less than 0.1 nmol/h/mg each time. Besides, the “Substrate specificity, C2GnT3 activity” value at C2GnT3 (acceptor substrate 2 mM) and on C2GnT3 (acceptor substrate 10 mM) was less than 0.1 nmol/h/mg throughout.
